Results as given in ChEMBL document CHEMBL3621203, “Discovery and Structure Enabled Synthesis of 2,6-Diaminopyrimidin-4-one IRAK4 Inhibitors” (ACS Med Chem Lett, 2015).
In brackets after ≈: the same amount, converted by molar mass. Activity calls are given as the source filed them. The rule behind the calls is not given here.

Columns and labels:
[1] = Clearance in Wistar Han rat at 1 mg/kg, iv; format: ADME, organism-based; conditions: in vivo
[2] = Kinetic solubility of the compound at pH 7; format: physicochemical; conditions: buffer
[3] = Oral bioavailability in Wistar Han rat at 10 mg/kg; format: ADME, organism-based; conditions: in vivo
[4] = Apparent permeability of the compound across pig LLC-PK1 cells; format: ADME, cell-based, Sus scrofa
[5] = molecular target: T1, Interleukin-1 receptor-associated kinase 4 (Homo sapiens, UniProt Q9NWZ3); assay: Inhibition of IRAK4 (unknown origin) using 5FAM-RKRQGSVRRRVHCCOOH as substrate after 30 mins by IMAP assay
T1 sequence (Q9NWZ3 whole entry): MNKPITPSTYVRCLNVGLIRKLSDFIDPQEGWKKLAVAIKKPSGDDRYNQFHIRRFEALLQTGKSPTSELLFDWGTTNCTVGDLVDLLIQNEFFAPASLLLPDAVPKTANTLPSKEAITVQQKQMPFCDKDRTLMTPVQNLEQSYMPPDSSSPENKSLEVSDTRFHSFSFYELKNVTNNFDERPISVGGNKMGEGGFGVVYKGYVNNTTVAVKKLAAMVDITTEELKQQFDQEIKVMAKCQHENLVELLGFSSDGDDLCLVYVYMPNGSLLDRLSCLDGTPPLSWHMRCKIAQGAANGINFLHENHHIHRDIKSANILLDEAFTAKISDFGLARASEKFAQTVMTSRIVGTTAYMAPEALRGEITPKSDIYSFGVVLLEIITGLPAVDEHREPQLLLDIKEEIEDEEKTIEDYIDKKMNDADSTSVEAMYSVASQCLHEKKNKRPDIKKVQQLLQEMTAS

[6] = molecular target: T1, Interleukin-1 receptor-associated kinase 4; assay: Inhibition of IRAK4-mediated NFkappaB activation in human THP1-XBlue cells assessed as LPS-induced secreted embryonic alkaline phosphatase activity treated 1 hr before LPS challenge measured after 5 hrs by spectrophotometer analysis; format: cell-based, THP-1
[7] = molecular target: Receptor-type tyrosine-protein kinase FLT3 (Homo sapiens) (UniProt P36888); assay: Inhibition of FLT3 (unknown origin)
Chain of Receptor-type tyrosine-protein kinase FLT3 (Homo sapiens) (P36888 whole entry): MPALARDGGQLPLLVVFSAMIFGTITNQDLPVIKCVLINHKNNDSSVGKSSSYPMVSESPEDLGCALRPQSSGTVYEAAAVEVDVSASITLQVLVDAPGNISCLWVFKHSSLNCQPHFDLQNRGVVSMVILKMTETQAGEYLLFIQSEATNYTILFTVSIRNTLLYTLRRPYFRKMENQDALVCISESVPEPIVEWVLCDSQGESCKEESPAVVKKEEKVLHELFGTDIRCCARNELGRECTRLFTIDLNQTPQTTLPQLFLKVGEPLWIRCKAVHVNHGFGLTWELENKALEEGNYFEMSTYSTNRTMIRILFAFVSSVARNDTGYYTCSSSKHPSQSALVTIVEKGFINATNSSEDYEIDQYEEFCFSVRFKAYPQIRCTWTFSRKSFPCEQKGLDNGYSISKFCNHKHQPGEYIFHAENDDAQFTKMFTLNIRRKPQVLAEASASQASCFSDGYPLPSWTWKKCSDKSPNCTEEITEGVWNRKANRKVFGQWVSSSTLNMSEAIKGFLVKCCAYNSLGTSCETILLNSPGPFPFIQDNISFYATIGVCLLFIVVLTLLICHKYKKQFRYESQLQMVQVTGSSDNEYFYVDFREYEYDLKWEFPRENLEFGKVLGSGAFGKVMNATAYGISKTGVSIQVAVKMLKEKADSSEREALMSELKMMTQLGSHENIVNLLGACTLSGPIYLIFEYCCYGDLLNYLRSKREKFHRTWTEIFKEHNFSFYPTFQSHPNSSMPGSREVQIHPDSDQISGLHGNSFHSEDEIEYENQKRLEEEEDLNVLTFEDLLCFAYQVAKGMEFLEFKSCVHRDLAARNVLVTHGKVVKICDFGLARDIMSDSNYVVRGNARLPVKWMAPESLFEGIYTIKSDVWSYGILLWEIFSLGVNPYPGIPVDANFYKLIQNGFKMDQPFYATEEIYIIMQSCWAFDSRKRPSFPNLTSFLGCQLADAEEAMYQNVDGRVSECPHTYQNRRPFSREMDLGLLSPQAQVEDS

SMILES	clearance [1]	solubility kinetic [2]	bioavailability [3]	Papp [4]	IC50 [5]	IC50 [6]	inhibition [7]
O=c1[nH]c(N2CCOCC2)nc(N[C@@H]2CCCNC2)c1-c1nc2ccccc2s1	45 mL/min/kg	21 µM (≈ 8.66 µg/mL)	13%	29 ×10⁻⁶ cm/s	–	–	–
C[C@H]1CC[C@@H](Nc2nc(N3CCOCC3)[nH]c(=O)c2-c2nc3ccccc3s2)CN1	–	–	–	–	565 nM	–	–
OC[C@H]1C[C@@H](Nc2nc(NC3CC3)ncc2-c2nc3ccccc3s2)[C@H](O)[C@@H]1O	–	–	–	–	470 nM	–	–
C[C@@H]1CC[C@@H](Nc2nc(N3CCOCC3)[nH]c(=O)c2-c2nc3ccccc3s2)CN1	51 mL/min/kg	13 µM (≈ 5.55 µg/mL)	42%	15 ×10⁻⁶ cm/s	93 nM	580 nM	–
CN(C)c1nc(N[C@@H]2C[C@H](CO)[C@@H](O)[C@H]2O)c(-c2nc3ccccc3s2)c(=O)[nH]1	–	–	–	–	490 nM	–	–
O=c1[nH]c(N2CCOCC2)nc(N[C@H]2CNC[C@H](O)C2)c1-c1nc2ccccc2s1	43 mL/min/kg	8 µM (≈ 3.43 µg/mL)	2%	9 ×10⁻⁶ cm/s	–	333 nM	–

Second part, the compound after the results:

clearance [1]	solubility kinetic [2]	bioavailability [3]	Papp [4]	IC50 [5]	IC50 [6]	inhibition [7]	SMILES
98 mL/min/kg	63 µM (≈ 29 µg/mL)	0%	7 ×10⁻⁶ cm/s	–	–	–	O=c1[nH]c(N2CCOCC2)nc(N[C@@H]2C[C@H](CO)[C@@H](O)[C@H]2O)c1-c1nc2ccccc2s1
–	26 µM (≈ 11.5 µg/mL)	–	12 ×10⁻⁶ cm/s	–	78 nM	–	O=c1[nH]c(N2CCCC2)nc(N[C@@H]2C[C@H](CO)[C@@H](O)[C@H]2O)c1-c1nc2ccccc2s1
75 mL/min/kg	23 µM (≈ 9.88 µg/mL)	4%	18 ×10⁻⁶ cm/s	–	292 nM	–	O=c1[nH]c(N2CCC2)nc(N[C@@H]2C[C@H](CO)[C@@H](O)[C@H]2O)c1-c1nc2ccccc2s1
88 mL/min/kg	12 µM (≈ 6.07 µg/mL)	0%	5 ×10⁻⁶ cm/s	27 nM	141 nM	Active	O=c1[nH]c(N2CCc3ccccc3C2)nc(N[C@@H]2C[C@H](CO)[C@@H](O)[C@H]2O)c1-c1nc2ccccc2s1
–	–	–	–	972 nM	–	–	CCc1nc(N[C@@H]2C[C@H](CO)[C@@H](O)[C@H]2O)c(-c2nc3ccccc3s2)c(=O)[nH]1
–	–	–	–	352 nM	–	–	CSc1nc(N[C@@H]2C[C@H](CO)[C@@H](O)[C@H]2O)c(-c2nc3ccccc3s2)c(=O)[nH]1
